Results as given in patent US10888608B2, “Costimulation of chimeric antigen receptors by MyD88 and CD40 polypeptides” (BELLICUM PHARMACEUTICALS, INC., priority 2014, dated 2021).
Residue numbers refer to the chain shown, from its start. Names and notes keep the numbering of the source. Read-outs that look alike come from different tables or passages of the source.

B1: N405Q-S144Aco: Caspase-9 double mutant, class predicted (protein, UniProt P55211 1-416, looked up, variant N405Q S144A)
chain: MDEADRRLLRRCRLRLVEELQVDQLWDALLSRELFRPHMIEDIQRAGSGSRRDQARQLIIDLETRGSQALPLFISCLEDTGQDMLASFLRTNRQAAKLSKPTLENLTPVVLRPEIRKPEVLRPETPRPVDIGSGGFGDVGALEALRGNADLAYILSMEPCGHCLIINNVNFCRESGLRTRTGSNIDCEKLRRRFSSLHFMVEVKGDLTAKKMVLALLELAQQDHGALDCCVVVILSHGCQASHLQFPGAVYGTDGCPVSVEKIVNIFNGTSCPSLGGKPKLFFIQACGGEQKDHGFEVASTSPEDESPGSNPEPDATPFQEGLRTFDQLDAISSLPTPSDIFVSYSTFPGFVSWRDPKSGSWYVETLDDIFEQWAHSEDLQSLLLRVANAVSVKGIYKQMPGCFQFLRKKLFFKTS
modifications: codon optimized
notes: Caspase-9 double mutant, class predicted
B2: N405Q-T317Sco: Caspase-9 double mutant, class predicted (protein, UniProt P55211 1-416, looked up, variant N405Q T317S)
chain: B1 chain with A144S, T317S
modifications: codon-optimized
notes: as for B1

How the values were obtained:
CD3^+ ΔCD19^+ cells = test: Phase I clinical trial: iCasp9^+ allodepleted T cells after haplo-CD34^+ stem cell transplantation, AP1903 given for GvHD; type: in vivo, human
Excerpt: This example presents results of a phase 1 clinical trial using an alternative suicide gene strategy. Briefly, donor peripheral blood mononuclear cells were co-cultured with recipient irradiated EBV-transformed lymphoblastoid cells (40:1) for 72 hrs., allodepleted with a CD25 immunotoxin and then transduced with a retroviral supernatant carrying the iCasp9 suicide gene and a selection marker (ΔCD19); ΔCD19 allowed enrichment to >90% purity via immunomagnetic selection.
Patients developing grade 1 GvHD were treated with 0.4 mglkg AP1903 as a 2-hour infusion. Protocols for administration of AP1903 to patients grade 1 GvHD were established as follows. Patients developing GvHD after infusion of allodepleted T cells are biopsied to confirm the diagnosis and receive 0.4 mg/kg of AP1903 as a 2 h infusion. […] Patients developing grades 2-4 GvHD were administered standard systemic immunosuppressive therapy per institutional guidelines, in addition to the AP1903 dimerizer drug.
Three patients received iCasp9^+ T cells after haplo-CD34^+ stem cell transplantation (SCT), at dose levels between about 1×10^6 to about 3×10^6 cells/kg.

cells = test: AP1903 amount needed in vitro for effective signaling of cells; type: cell-based
Procedure: The fixed dose of AP1903 for injection used, for example, may be 0.4 mg/kg intravenously infused over 2 hours. The amount of AP1903 needed in vitro for effective signaling of cells is about 10-100 nM (MW: 1412 Da). This equates to 14-140 μg/L or ˜0.014-0.14 mg/kg ([…]). The dosage may vary according to the application, and may, in certain examples, be more in the range of 0.1-10 nM, or in the range of 50-150 nM, 10-200 nM, 75-125 nM, 100-500 nM, 100-600 nM, 100-700 nM, 100-800 nM, or 100-900 nM. Doses up to 1 mg/kg were well-tolerated in the Phase I study of AP1903 provided above.

[1] = cited from earlier work
[2] = system: iC9-CD19.ζ-MC CAR-modified T cells; test: Raji tumor NSG mouse model with iC9-CD19.ζ-MC CAR T cells and rimiducid (Example 19); type: in vivo, mice
Procedure: FIG. 40A-FIG. 40C provide results of the enhancement of CD19 CAR-T cell efficacy in vivo by the MyD88/CD40 chimeric costimulatory molecule using the constructs of FIG. 37A-FIG. 37E. FIG. 40A: NSG mice (n=5 per group) were engrafted with Raji-luciferase tumor cells and then treated with non-transduced (NT) or iC9-CD19.ζ-MC CAR-modified T cells on day 3. Tumor growth was measured by IVIS imaging and calculated by whole-body BLI, as shown in photos. FIG. 40B provides a graph of bioluminescent counts (BLI counts) and FIG. 40C provides a graph of (Kaplan-Meier analysis from (A)).
FIG. 41A-FIG. 41C provide results of assays of the titration of inducible chimeric Caspase-9 expressing cells, using the constructs of FIG. 37A-FIG. 37E, with rimiducid. FIG. 41A and FIG. 41B: NSG mice (n=5 per group) were engrafted with CD19^+ Raji lymphoma cells and treated with 5×10^6 iC9-CD19.ζ-MC/luciferase-transduced T cells at day 3. After 6 days, mice were treated i.p. with log dilutions of rimiducid (0.00005-5 mg/kg). BLI of CAR-T cells was assessed prior to rimiducid treatment and at 24 and 48 hours post-injection. […] FIG. 41C provides graphs of serum cytokine levels, which were measured from each group before (black line) and 24 hours post-administration (gray line) of rimiducid. *P-value=<0.01.
5×10^5 Raji tumor cells were injected i.v. into NSG mice. On day 3, CD19 CAR-modified T cells were injected i.v. and bioluminescence (BLI) was measured for either tumor or T cells on a weekly basis by IVIS imaging. […]
FIG. 40 provides the results of mouse in vivo efficacy assays using the various CD19-specific CAR constructs. […] Tumor growth was measured by IVIS imaging and calculated by whole-body BLI (B). […]
FIG. 41 provides the results of mouse in vivo assays including CD19-specific CAR constructs and the Caspase-9 safety switch. […] BLI of CAR-T cells was assessed prior to rimiducid treatment and at 24 and 48 hours post-injection. C) Serum cytokine levels were measured from each group before (black line) and 24 hours post-administration (orange line) of rimiducid. *P-value=<0.01.

Caspase-9 = test: Caspase mutant classes: basal activity and ligand IC50; set-up: species or system human; details: mutants marked *, predicted
Excerpt: Modified Caspase-9 Polypeptides with Lower Basal Activity and Minimal Loss of Ligand IC50
Even though homo-dimerization of wild-type initiator Caspase-9 is energetically unfavorable, making them mostly monomers in solution [14-16], the low-level inherent basal activity of unprocessed Caspase-9 [15, 17] is enhanced in the presence of the Apaf-1-based “apoptosome”, its natural allosteric regulator [6]. Moreover, supra-physiological expression levels and/or co-localization could lead to proximity-driven dimerization, further enhancing basal activation. The modified cells of the present application may comprise nucleic acids coding for a chimeric Caspase-9 polypeptide having lower basal signaling activity. Polynucleotides comprising Caspase-9 mutants with lower basal signaling may be expressed in the modified cells used for cell therapy herein. […] In some examples, the amount of dimerizer administered may be determined as an amount designed to remove the highest amount, at least 80% or 90% of the modified cells. In other examples, the amount of dimerizer administered may be determined as an amount designed to remove only a portion of the modified cells, in order to alleviate negative symptoms or conditions, while leaving a sufficient amount of therapeutic modified cells in the patient, in order to continue therapy. […]

[3] = rimiducid administered at objective evidence of sCRS

Basal Activity (Caspase-9) | Molecule | time to resolution of skin and liver aGvHD (CD3^+ ΔCD19^+ cells; after AP1903 administration) [h] | ablation of CD3^+ ΔCD19^+ cells (CD3^+ ΔCD19^+ cells; within 30 minutes of infusion, patients with grade I/II aGvHD) [%] | further reduction of CD3^+ ΔCD19^+ cells (CD3^+ ΔCD19^+ cells; within 24 hours) | amount needed in vitro for effective signaling of cells (cells) [nM] | plasma levels versus dose ([1]; 0.01-1.0 mg/kg) | plasma levels, % of maximal concentration ([1]; 2 hours post-dose) [%] | plasma levels, % of maximal concentration ([1]; 10 hours post-dose) [%] | serious adverse events ([1]; Phase 1 study in volunteers) | severity of adverse events ([1]; Phase 1 study in volunteers) | doses well-tolerated ([1]; Phase I study) | mean Cmax / plasma concentrations ([1]; single doses 0.01-1.0 mg/kg infused IV over 2 hours) [ng/mL] | adverse events possibly related to AP1903 ([1]; vasodilatation (facial flushing), 1 volunteer at 1.0 mg/kg) | CAR T cell elimination on titration ([2]; iCaspase-9 safety switch, titrated rimiducid) | resolution of clinical sCRS [2, 3] | time to normalization of cytokines [2, 3] [h]
 | CC[C@H](C(=O)N1CCCC[C@H]1C(=O)O[C@H](CCc1ccc(OC)c(OC)c1)c1cccc(OCC(=O)NCCNC(=O)COc2cccc([C@@H](CCc3ccc(OC)c(OC)c3)OC(=O)[C@@H]3CCCCN3C(=O)[C@@H](CC)c3cc(OC)c(OC)c(OC)c3)c2)c1)c1cc(OC)c(OC)c(OC)c1 (relative stereo) [AP1903, 2-Piperidinecarboxylic acid, 1-[(2S)-1-oxo-2-(3,4,5-trimethoxyphenyl)butyl]-, 1,2-ethanediylbis [imino(2-oxo-2,1-ethanediyl)oxy-3,1-phenylene[(1R)-3-(3,4-dimethoxyphenyl)propylidene]] ester, [2S-[1(R*),2R*[S*[S*[1(R*),2R*]]]]]-(9Cl)] | ≤ 24 | > 90 | further log reduction | 10 to 100 | directly proportional to dose | ~7 | ~1 | No serious adverse events occurred | mild in severity | up to 1 mg/kg | 10 to 1275 | Only one adverse event was considered possibly related to AP1903 | partial T cell elimination that still preserved CAR-T cell function | complete resolution of clinical sCRS without compromising tumor control | ≤ 24
Decreased | B1 |  |  |  |  |  |  |  |  |  |  |  |  |  |  | 
Decreased | B2 |  |  |  |  |  |  |  |  |  |  |  |  |  |  | 
